Experimental findings from patent publication US6982251B2, “Substituted 2-azetidinones useful as hypocholesterolemic agents” (Schering Corporation, priority 2000, dated 2006) are described below.

One data set relates to Hyperlipidemic Hamster. The data set can be described thus: In Vivo Assay of Hypolipidemic Agents Using the Hyperlipidemic Hamster. The settings on record: oral gavage once daily, 7 days, percent change versus control; for % Reduction in Plasma Cholesterol: cholesterol diet, negative = lowering; for % Reduction in Cholesterol Esters: hepatic cholesterol esters. The procedure: In Vivo Assay of Hypolipidemic Agents Using the Hyperlipidemic Hamster
Hamsters are separated into groups of six and given a controlled cholesterol diet (Purina Chow #5001 containing 0.5% cholesterol) for seven days. Diet consumption is monitored to determine dietary cholesterol exposure in the presence of test compounds. The animals are dosed with the test compound once daily beginning with the initiation of diet. Dosing is by oral gavage of 0.2 mL of corn oil alone (control group) or solution (or suspension) of test compound in corn oil. All animals moribund or in poor physical condition are euthanized. After seven days, the animals are anesthetized by IM injection of ketamine and sacrificed by decapitation. Blood is collected into Vacutainer™ tubes containing EDTA for plasma total cholesterol and triglyceride analysis and the liver excised for free and esterified cholesterol and triglyceride tissue analysis. Data is reported as percent reduction of plasma cholesterol and hepatic cholesterol esters versus control levels.
Data is reported as percent change (i.e., percent reduction in plasma cholesterol and in hepatic cholesterol esters) versus control, therefore, negative numbers indicate a positive cholesterol-lowering effect.

A further data set relates to human jejunum microsomes. Put plainly: Incubation with human jejunum microsomes supplemented with UDPGA. It counts as in vitro ADME. The conditions noted are these: No hydrolysis; after 2 hr incubation of human jejunum microsomes with 50 μM Compound 6A + UDPGA.
For a further data set, the system named is β-Glucuronidase. Put plainly: β-Glucuronidase hydrolysis of the glucuronide mixture obtained from jejunum microsomes. The settings on record: for Outcome of β-glucuronidase hydrolysis: after hydrolyzing for 18 h. In kind it is in vitro ADME.

`O=C1[C@H](CC[C@H](O)c2ccc(F)cc2)[C@@H](c2ccc(O)cc2)N1c1ccc(F)cc1` [Compound 6A, ezetimibe]: the “% Reduction in Plasma Cholesterol” value in the data set on Hyperlipidemic Hamster (dose 1 mg/kg) is on record as −59%. Further, the “% Reduction in Cholesterol Esters” value in the data set with Hyperlipidemic Hamster (dose 1 mg/kg) is reported as −95%. Further, the “% of Compound 6A” value with human jejunum microsomes is given as 32.06%; with β-Glucuronidase (Control: 180 min, No microsomes, No UDPGA) it was 72.92%; in the data set with β-Glucuronidase (hydrolysis time 5 min) it was 68.10%; in the data set with β-Glucuronidase (hydrolysis time 10 min) it was 61.88%; in the data set with β-Glucuronidase (hydrolysis time 20 min), 66.02%; with β-Glucuronidase (hydrolysis time 30 min), 80.14%. Besides, the “% of Compound 6A” value in the data set on β-Glucuronidase (hydrolysis time 180 min) came out at 84.67%.
`O=C(O)C1OC(O[C@@H](CCC2C(=O)N(c3ccc(F)cc3)C2c2ccc(O)cc2)c2ccc(F)cc2)[C@H](O)[C@@H](O)[C@@H]1O` (some centres unmarked) [Compound III]: the “% of Compound III (Benzylic Glucuronide)” value stood at 32.14% with human jejunum microsomes; 19.30% with β-Glucuronidase (hydrolysis time 5 min); 18.58% in the data set with β-Glucuronidase (hydrolysis time 10 min); 15.12% in the data set on β-Glucuronidase (hydrolysis time 20 min); 11.22% in the data set on β-Glucuronidase (hydrolysis time 30 min); 6.5% with β-Glucuronidase (hydrolysis time 180 min). For the same molecule, the “Outcome of β-glucuronidase hydrolysis” value in the data set on β-Glucuronidase is “hydrolyzed to form a single Compound 6A peak”.
Consider `O=C(O)[C@H]1O[C@@H](Oc2ccc([C@@H]3[C@@H](CC[C@H](O)c4ccc(F)cc4)C(=O)N3c3ccc(F)cc3)cc2)[C@H](O)[C@@H](O)[C@@H]1O` [Example 1], for which, in the data set with Hyperlipidemic Hamster (dose 3 mg/kg), the “% Reduction in Plasma Cholesterol” value is listed as −58%. Further, the “% Reduction in Cholesterol Esters” value in the data set with Hyperlipidemic Hamster (dose 3 mg/kg) was −95%. Also, the “% of Example 1 (Phenolic Glucuronide)” value with human jejunum microsomes is reported as 31.68%; with β-Glucuronidase (hydrolysis time 5 min), 2.23%; with β-Glucuronidase (hydrolysis time 10 min), 1.04%; with β-Glucuronidase (hydrolysis time 20 min), 0.77%; with β-Glucuronidase (hydrolysis time 30 min), 0%; with β-Glucuronidase (hydrolysis time 180 min), 0%. Further, the “Relative rate of β-glucuronidase hydrolysis” value in the data set on β-Glucuronidase (5, 10, 20, 30 and 180 min) is recorded as “hydrolyzed at a faster rate than Compound III”. Further, the “Outcome of β-glucuronidase hydrolysis” value with β-Glucuronidase is on record as “hydrolyzed to form a single Compound 6A peak”.
